Key:
[1] = Tolerance in subungual and periungual application; format: in vivo
Excerpt: (§1) Its tolerance in subungual and periungual application is good and perfectly compatible with the desired therapeutic effect.

[2] = tested on: DNA; conditions: cited from earlier work
[3] = tested on: rat; conditions: by mouth; cited from earlier work
[4] = Irritation of eyes and mucous membranes; format: in vivo; conditions: pure or concentrated GBL
Excerpt: as §1

Q: For `O=C1CCCO1` [GBL, gamma-butyrolactone], which “tolerance in subungual and periungual application” value [1] is on record?
A: The value was “good”.

Q: And the “alteration of DNA” value [2]?
A: Its value is “no alteration of DNA”.

Q: What about the LD50 [3] of the same molecule?
A: The LD50 was 17.2 mL/kg.

Q: What about the “irritation of eyes and mucous membranes” value [4] of the same molecule?
A: Its value is “irritating to the eyes and the mucous membranes”.
